In patent US20260028354A1, “TETRAHYDRONAPHTHALENE DERIVATIVES AS ESTROGEN RECEPTOR DEGRADERS” (REGENT OF THE UNIVERSITY OF MICHIGAN, priority 2022, published 2026):
Like-named read-outs stand apart in the source and are kept apart here.

How the values were obtained:
ER in MCF-7 cells = ER in MCF-7 cells (Homo sapiens (Human), UniProt P03372); experiment: In-cell Western (ICW) ER degradation assay in MCF-7 cells; assay type: cell-based; details: for DC50: MCF-7, ER degradation, read-out: MCF7 DC50
Sequence of ER in MCF-7 cells (P03372 whole entry): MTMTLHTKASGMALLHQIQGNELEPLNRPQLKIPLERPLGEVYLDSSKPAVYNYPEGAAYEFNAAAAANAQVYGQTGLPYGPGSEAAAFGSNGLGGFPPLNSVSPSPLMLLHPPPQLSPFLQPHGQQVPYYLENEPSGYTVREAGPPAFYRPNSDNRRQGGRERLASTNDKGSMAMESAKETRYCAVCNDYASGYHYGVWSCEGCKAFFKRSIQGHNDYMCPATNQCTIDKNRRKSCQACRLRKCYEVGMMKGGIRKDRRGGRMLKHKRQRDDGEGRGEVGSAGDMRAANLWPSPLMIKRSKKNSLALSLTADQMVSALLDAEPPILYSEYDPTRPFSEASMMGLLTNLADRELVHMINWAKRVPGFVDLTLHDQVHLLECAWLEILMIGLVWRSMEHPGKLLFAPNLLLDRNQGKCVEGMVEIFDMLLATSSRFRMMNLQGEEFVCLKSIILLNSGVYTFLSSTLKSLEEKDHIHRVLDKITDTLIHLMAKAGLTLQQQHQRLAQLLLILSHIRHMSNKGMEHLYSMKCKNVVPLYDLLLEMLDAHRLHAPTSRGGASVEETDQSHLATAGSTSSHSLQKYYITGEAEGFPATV

MCF-7 cells = experiment: CellTiter-Glo (CTG) cell proliferation assay in MCF-7 cells; assay type: cell-based; details: Homo sapiens, MCF7, 144 h, MCF-7 cell proliferation, Day 6
Source text: CellTiter-Glo® (CTG) Assays in MCF-7 and T47D Cell Lines.
In vitro Assay: MCF-7 and T47D CTG assay

[1] = MCF7, read-out: MCF7 Dmax, MCF-7, maximal ER degradation, 16 hrs treatment

| SMILES | Dmax (ER in MCF-7 cells; [1]) [%] | DC50 (ER in MCF-7 cells; 16 hrs treatment) [nM] | IC50 (MCF-7 cells) [nM] | Dmax (ER in MCF-7 cells; MCF7, MCF-7, maximal ER degradation, 16 hrs treatment, read-out: MCF7 Dmax) [%] |
| --- | --- | --- | --- | --- |
| O=C1CC[C@H](N2Cc3c(ccc4c3OCC43CCN(CC4CCC5(CC4)CN(c4ccc([C@@H]6c7ccc(O)cc7CC[C@@H]6c6ccccc6)cc4)C5)CC3)C2=O)C(=O)N1 [Compound A177, (S)-3-(1′-((2-(4-((1R,2S)-6-hydroxy-2-phenyl-1,2,3,4-tetra-hydronaphthalen-1-yl)phenyl)-2-azaspiro[3.5]nonan-7-yl)-methyl)-6-oxo-6,8-dihydro-2H,7H-spiro[furo[2,3-e]iso-indole-3,4′-piperidin]-7-yl)-piperidine-2,6-dione] | > 75 | < 1 | > 100 | – |
| O=C1CC[C@H](N2Cc3cc4c(cc3C2=O)OCC42CCN(CC3CCC4(CC3)CN(c3ccc([C@@H]5c6ccc(O)cc6CC[C@@H]5c5ccccc5)cc3)C4)CC2)C(=O)N1 [Compound A178, (S)-3-(1′-((2-(4-((1R,2S)-6-hydroxy-2-phenyl-1,2,3,4-tetra-hydronaphthalen-1-yl)phenyl)-2-azaspiro[3.5]nonan-7-yl)-methyl)-7-oxo-5,7-dihydro-2H, 6H-spiro[furo[2,3-f]isoindole-3,4′-piperidin]-6-yl)piperidine-2,6-dione] | > 75 | < 1 | > 100 | – |
| COc1cc(N2CC3(CCC(CN4CCC5(CC4)COc4nc(C(=O)N[C@H]6CCC(=O)NC6=O)ccc45)CC3)C2)c(F)cc1[C@@H]1c2ccc(O)cc2CC[C@@H]1c1ccccc1 [Compound A179, N-((S)-2,6-dioxopiperidin-3-yl)-1′-((2-(2-fluoro-4-((1S,2S)-6-hydroxy-2-phenyl-1,2,3,4-tetrahydronaphthalen-1-yl)-5-methoxyphenyl)-2-azaspiro [3.5]nonan-7-yl)methyl)-2H-spiro[furo[2,3-b]pyridine-3,4′-piperidine]-6-carboxamide] | > 75 | < 1 | > 100 | – |
| COc1cc(N2CCC(CCN3CCN4c5ccc6c(c5OC[C@H]4C3)CN([C@H]3CCC(=O)NC3=O)C6=O)CC2)c(F)cc1[C@@H]1c2ccc(O)cc2CC[C@@H]1c1ccccc1 [Compound A180, (S)-3-((R)-7-(2-(1-(2-fluoro-4-((1S,2S)-6-hydroxy-2-phenyl-1,2,3,4-tetrahydronaphthalen-1-yl)-5-methoxyphenyl)piper-idin-4-yl)ethyl)-1-oxo-1,3,5,5a, 6,7,8,9-octahydro-2H-pyrazino [1′,2′:4,5][1,4]oxazino[2,3-e]isoindol-2-yl)piperidine-2,6-dione] | – | < 1 | > 100 | > 75 |
| O=C1CC[C@H](N2Cc3c(ccc4c3OCC43CCN(CC4CC5(CCN(c6ccc([C@@H]7c8ccc(O)cc8CC[C@@H]7c7ccccc7)cc6)CC5)C4)CC3)C2=O)C(=O)N1 [Compound A181, (S)-3-(1′-((7-(4-((1R,2S)-6-hydroxy-2-phenyl-1,2,3,4-tetra-hydronaphthalen-1-yl)phenyl)-7-azaspiro[3.5]nonan-2-yl)-methyl)-6-oxo-6,8-dihydro-2H, 7H-spiro[furo[2,3-e]isoindole-3,4′-piperidin]-7-yl)piperidine-2,6-dione] | > 75 | < 1 | > 100 | – |
| COc1cc(N2CC3(CC(CN4CCC5(CC4)COc4c5ccc5c4CN([C@H]4CCC(=O)NC4=O)C5=O)C3)C2)c(F)cc1[C@@H]1c2ccc(O)cc2CC[C@@H]1c1ccccc1 [Compound A184, (S)-3-(1′-((2-(2-fluoro-4-((1S, 2S)-6-hydroxy-2-phenyl-1,2,3,4-tetrahydronaphthalen-1-yl)-5-methoxyphenyl)-2-aza-spiro[3.3]heptan-6-yl)methyl)-6-oxo-6,8-dihydro-2H,7H-spiro[furo[2,3-e]isoindole-3,4′-piperidin]-7-yl)piperidine-2,6-dione] | 50 to 75 | – | > 100 | – |
| COc1cc(N2CCC3(CC2)CC(CN2CCC4(CC2)COc2c4cc4c(c2C)C(=O)N([C@H]2CCC(=O)NC2=O)C4)C3)c(F)cc1[C@@H]1c2ccc(O)cc2CC[C@@H]1c1ccccc1 [Compound A220, (S)-3-(1′-((7-(2-fluoro-4-((1S,2S)-6-hydroxy-2-phenyl-1,2,3,4-tetrahydronaphthalen-1-yl)-5-methoxyphenyl)-7-aza-spiro[3.5]nonan-2-yl)methyl)-8-methyl-7-oxo-5,7-dihydro-2H,6H-spiro[furo[2,3-f]iso-indole-3,4′-piperidin]-6-yl)-piperidine-2,6-dione] | – | – | < 10 | – |
| COc1cc(N2CCC3(CC2)CC(CN2CCN4c5cc(Cl)c6c(c5OC[C@H]4C2)CN([C@H]2CCC(=O)NC2=O)C6=O)C3)c(F)cc1[C@@H]1c2ccc(O)cc2CC[C@@H]1c1ccccc1 [Compound A221, (S)-3-((R)-12-chloro-7-((7-(2-fluoro-4-((1S,2S)-6-hydroxy-2-phenyl-1,2,3,4-tetrahydronaph-thalen-1-yl)-5-methoxyphenyl)-7-azaspiro[3.5]nonan-2-yl)-methyl)-1-oxo-1,3,5,5a,6,7,8,9-octahydro-2H-pyrazino[1′,2′: 4,5][1,4]oxazino[2,3-e]isoindol-2-yl)piperidine-2,6-dione] | – | – | > 100 | – |
| COc1cc(N2CCC3(CC2)CC(CN2CCC4(CC2)COc2c4cc(OC)c4c2CN([C@@H]2CCC(=O)NC2=O)C4=O)C3)c(F)cc1[C@@H]1c2ccc(O)cc2CC[C@@H]1c1ccccc1 [Compound A223, (R)-3-(1′-((7-(2-fluoro-4-((1S,2S)-6-hydroxy-2-phenyl-1,2,3,4-tetrahydronaphthalen-1-yl)-5-methoxyphenyl)-7-azaspiro[3.5]nonan-2-yl)methyl)-5-methoxy-6-oxo-6,8-dihydro-2H,7H-spiro[furo[2,3-e]isoindole-3,4′-piperidin]-7-yl)piperidine-2,6-dione] | – | – | < 10 | – |
| COc1cc(N2CCC(CCN3CCN4c5cc(Cl)c6c(c5OC[C@H]4C3)CN([C@H]3CCC(=O)NC3=O)C6=O)CC2)c(F)cc1[C@@H]1c2ccc(O)cc2CC[C@@H]1c1ccccc1 [Compound A224, (S)-3-((R)-12-chloro-7-(2-(1-(2-fluoro-4-((1S,2S)-6-hydroxy-2-phenyl-1,2,3,4-tetrahydronaphthalen-1-yl)-5-methoxyphenyl)piperidin-4-yl)ethyl)-1-oxo-1,3,5,5a,6,7,8,9-octahydro-2H-pyrazino[1′,2′: 4,5][1,4]oxazino[2,3-e]isoindol-2-yl)piperidine-2,6-dione] | – | – | 10 to 100 | – |
| COc1cc(N2CCC(CCN3CCC4(CC3)COc3c4cc(OC)c4c3CN([C@@H]3CCC(=O)NC3=O)C4=O)CC2)c(F)cc1[C@@H]1c2ccc(O)cc2CC[C@@H]1c1ccccc1 [Compound A225, (R)-3-(1′-(2-(1-(2-fluoro-4-((1S,2S)-6-hydroxy-2-phenyl-1,2,3,4-tetrahydronaphthalen-1-yl)-5-methoxyphenyl)piperidin-4-yl)ethyl)-5-methoxy-6-oxo-6,8-dihydro-2H,7H-spiro[furo[2,3-e]isoindole-3,4′-piperidin]-7-yl)piperidine-2,6-dione] | – | – | < 10 | – |
| COc1cc(N2CCC3(CC2)CC(CN2CCN4c5cc(C)c6c(c5OC[C@H]4C2)CN([C@H]2CCC(=O)NC2=O)C6=O)C3)c(F)cc1[C@@H]1c2ccc(O)cc2CC[C@@H]1c1ccccc1 [Compound A228, (S)-3-((R)-7-((7-(2-fluoro-4-((1S,2S)-6-hydroxy-2-phenyl-1,2,3,4-tetrahydronaphthalen-1-yl)-5-methoxyphenyl)-7-aza-spiro[3.5]nonan-2-yl)methyl)-12-methyl-1-oxo-1,3,5,5a,6,7,8,9-octahydro-2H-pyrazino [1′,2′:4,5][1,4]oxazino[2,3-e]isoindol-2-yl)piperidine-2,6-dione] | – | – | 10 to 100 | – |
